Columns and labels:
[1] = biological target: T1, CYP1A2 (Homo sapiens, UniProt P05177); test: in vitro; conditions: microsomes
T1 sequence (P05177 1-516): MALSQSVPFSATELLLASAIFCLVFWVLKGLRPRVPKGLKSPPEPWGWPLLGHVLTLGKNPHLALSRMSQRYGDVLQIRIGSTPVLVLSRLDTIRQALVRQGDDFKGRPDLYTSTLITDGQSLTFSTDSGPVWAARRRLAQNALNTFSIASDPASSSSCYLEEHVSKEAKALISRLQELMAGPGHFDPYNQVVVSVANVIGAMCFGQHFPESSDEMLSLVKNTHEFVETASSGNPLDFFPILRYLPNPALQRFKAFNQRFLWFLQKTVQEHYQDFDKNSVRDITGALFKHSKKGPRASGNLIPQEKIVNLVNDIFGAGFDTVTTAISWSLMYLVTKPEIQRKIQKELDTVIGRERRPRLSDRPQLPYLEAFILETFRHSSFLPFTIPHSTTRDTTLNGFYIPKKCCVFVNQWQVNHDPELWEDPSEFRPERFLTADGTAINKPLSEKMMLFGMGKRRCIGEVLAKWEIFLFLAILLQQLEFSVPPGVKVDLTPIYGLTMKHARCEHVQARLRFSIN

[2] = biological target: CYP3A4 (Homo sapiens, UniProt P08684); test: in vitro; conditions: microsomes
[3] = biological target: T2, CYP2B6 (Homo sapiens, UniProt P20813); test: CYP inhibition in human liver microsomes; conditions: human, human liver microsomes, probe bupropion
T2 sequence (P20813 1-491): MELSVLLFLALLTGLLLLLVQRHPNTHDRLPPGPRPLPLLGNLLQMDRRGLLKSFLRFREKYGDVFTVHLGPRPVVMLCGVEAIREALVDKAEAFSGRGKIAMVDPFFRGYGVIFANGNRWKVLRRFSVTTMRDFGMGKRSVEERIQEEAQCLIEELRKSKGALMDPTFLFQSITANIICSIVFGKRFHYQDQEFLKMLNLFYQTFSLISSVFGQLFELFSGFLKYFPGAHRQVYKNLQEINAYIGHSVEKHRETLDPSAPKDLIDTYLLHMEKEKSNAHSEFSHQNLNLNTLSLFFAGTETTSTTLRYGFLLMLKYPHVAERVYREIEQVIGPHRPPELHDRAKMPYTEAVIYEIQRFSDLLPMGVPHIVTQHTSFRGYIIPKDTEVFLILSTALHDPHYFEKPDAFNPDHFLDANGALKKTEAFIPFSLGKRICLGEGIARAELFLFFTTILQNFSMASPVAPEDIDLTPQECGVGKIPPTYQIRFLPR

[4] = biological target: T3, CYP2C8 (Homo sapiens, UniProt P10632); test: CYP inhibition in human liver microsomes; conditions: human, human liver microsomes, probe paclitaxel
T3 sequence (P10632 1-490): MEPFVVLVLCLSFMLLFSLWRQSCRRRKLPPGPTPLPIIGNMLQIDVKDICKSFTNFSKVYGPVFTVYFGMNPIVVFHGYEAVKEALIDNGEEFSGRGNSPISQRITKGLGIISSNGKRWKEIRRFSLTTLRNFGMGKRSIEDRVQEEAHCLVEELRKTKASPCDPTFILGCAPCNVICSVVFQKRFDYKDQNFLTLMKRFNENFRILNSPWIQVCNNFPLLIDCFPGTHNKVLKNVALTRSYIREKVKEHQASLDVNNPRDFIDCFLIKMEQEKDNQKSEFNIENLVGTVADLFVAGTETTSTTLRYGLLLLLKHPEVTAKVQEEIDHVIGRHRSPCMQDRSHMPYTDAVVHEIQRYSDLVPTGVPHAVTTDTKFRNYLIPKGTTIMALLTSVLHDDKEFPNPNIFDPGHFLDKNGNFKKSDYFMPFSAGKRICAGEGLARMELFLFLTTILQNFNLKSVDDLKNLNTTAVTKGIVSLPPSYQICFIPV

[5] = biological target: CYP2C9 (Homo sapiens, UniProt P11712); test: CYP inhibition in human liver microsomes; conditions: human, human liver microsomes, probe diclofenac
[6] = biological target: CYP2C19 (Homo sapiens, UniProt P33261); test: CYP inhibition in human liver microsomes; conditions: human, human liver microsomes, probe mephenytoin
[7] = biological target: CYP2D6 (Homo sapiens, UniProt P10635); test: CYP inhibition in human liver microsomes; conditions: human, human liver microsomes, probe bufuralol
[8] = tested on: cardiovascular effects; conditions: dogs ref 4, 9; cited from earlier work
[9] = biological target: T3, CYP2C8; test: in vitro; conditions: microsomes
[10] = biological target: T1, CYP1A2; test: CYP inhibition in human liver microsomes; conditions: human, human liver microsomes, probe phenacetin
[11] = biological target: T4, MATE1 (Homo sapiens, UniProt Q96FL8); test: Transporter mediated assay (substrate/inhibitor), MDCK-II cells; type: in vitro ADME; conditions: human, polarized monolayer of MDCK-II cells expressing MATE1; MATE1, No BSA, 100 μM
T4 construct: expressed in transfected cells; host or cells: MDCK-II cells
T4 sequence (Q96FL8 1-570): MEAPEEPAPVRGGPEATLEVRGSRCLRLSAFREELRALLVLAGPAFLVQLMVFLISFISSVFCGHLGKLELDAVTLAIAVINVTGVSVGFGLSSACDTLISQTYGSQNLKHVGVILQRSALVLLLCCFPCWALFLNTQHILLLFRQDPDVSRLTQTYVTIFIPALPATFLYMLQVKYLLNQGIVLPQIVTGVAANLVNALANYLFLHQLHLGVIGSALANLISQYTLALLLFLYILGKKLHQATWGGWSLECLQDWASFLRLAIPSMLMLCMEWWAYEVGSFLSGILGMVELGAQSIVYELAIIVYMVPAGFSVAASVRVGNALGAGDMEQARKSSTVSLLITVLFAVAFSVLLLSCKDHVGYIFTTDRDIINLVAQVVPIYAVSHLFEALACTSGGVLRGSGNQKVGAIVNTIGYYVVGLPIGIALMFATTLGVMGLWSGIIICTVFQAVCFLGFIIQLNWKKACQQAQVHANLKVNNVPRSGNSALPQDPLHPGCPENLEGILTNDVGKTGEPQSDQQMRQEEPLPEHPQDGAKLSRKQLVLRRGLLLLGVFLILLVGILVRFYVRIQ
Experimental: The MDCK-II cells were treated to express the transporter of interest. The transport of each probe substrate was determined by radiometric detection (Fig 1 in S1 File). […] For the uptake assay, the net transporter-mediated uptake-rate (V) of the substrate by each SLC transporter was calculated as follows: Transporter–mediatedupdaterate(pmol/min/cm^2)=(Cellularaccumulationincellsexpressingthetransporter)−(Meancellularaccumulationincontrolcells)/Surfacearea×incubationtime
(§1) Fold of activity and percent inhibition were determined as follows: Foldofactivity=(Meanuptakerate)transporterexpressingcells/(Meanuptakerate)controlcells Percentinhibition=100−100×(Transport‐mediatedupdaterate)withinhibitor/(Transport‐mediatedupdaterate)vehiclecontrol

[12] = biological target: T5, MATE2-K (Homo sapiens, UniProt Q86VL8); test: as above; type: in vitro ADME; conditions: human, polarized monolayer of MDCK-II cells expressing MATE2-K, No BSA, 100 μM
T5 construct: expressed in transfected cells; host or cells: MDCK-II cells
Experimental: The MDCK-II cells were treated to express the transporter of interest. […] For the uptake assay, the net transporter-mediated uptake-rate (V) of the substrate by each SLC transporter was calculated as follows: Transporter–mediatedupdaterate(pmol/min/cm^2)=(Cellularaccumulationincellsexpressingthetransporter)−(Meancellularaccumulationincontrolcells)/Surfacearea×incubationtime
as §1

[13] = CYP activity (% of Control) 3A4 (Midazolam)
[14] = CYP activity (% of Control) 3A4 (Testosterone)

Sequence of CYP3A4 (P08684 2-503): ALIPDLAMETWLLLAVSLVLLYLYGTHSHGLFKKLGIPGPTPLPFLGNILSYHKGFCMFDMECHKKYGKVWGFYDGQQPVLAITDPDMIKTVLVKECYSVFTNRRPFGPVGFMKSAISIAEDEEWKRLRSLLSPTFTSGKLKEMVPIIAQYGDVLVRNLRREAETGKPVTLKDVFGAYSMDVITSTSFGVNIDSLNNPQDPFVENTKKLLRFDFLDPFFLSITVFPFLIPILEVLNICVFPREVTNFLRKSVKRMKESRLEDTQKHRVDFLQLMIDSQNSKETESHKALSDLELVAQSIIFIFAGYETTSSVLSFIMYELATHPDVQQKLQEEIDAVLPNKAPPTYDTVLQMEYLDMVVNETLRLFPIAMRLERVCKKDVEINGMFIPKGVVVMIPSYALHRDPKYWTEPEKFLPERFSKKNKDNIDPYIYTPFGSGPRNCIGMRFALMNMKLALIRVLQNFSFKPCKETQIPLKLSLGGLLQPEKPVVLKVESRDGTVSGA
Sequence of CYP2D6 (P10635 whole entry): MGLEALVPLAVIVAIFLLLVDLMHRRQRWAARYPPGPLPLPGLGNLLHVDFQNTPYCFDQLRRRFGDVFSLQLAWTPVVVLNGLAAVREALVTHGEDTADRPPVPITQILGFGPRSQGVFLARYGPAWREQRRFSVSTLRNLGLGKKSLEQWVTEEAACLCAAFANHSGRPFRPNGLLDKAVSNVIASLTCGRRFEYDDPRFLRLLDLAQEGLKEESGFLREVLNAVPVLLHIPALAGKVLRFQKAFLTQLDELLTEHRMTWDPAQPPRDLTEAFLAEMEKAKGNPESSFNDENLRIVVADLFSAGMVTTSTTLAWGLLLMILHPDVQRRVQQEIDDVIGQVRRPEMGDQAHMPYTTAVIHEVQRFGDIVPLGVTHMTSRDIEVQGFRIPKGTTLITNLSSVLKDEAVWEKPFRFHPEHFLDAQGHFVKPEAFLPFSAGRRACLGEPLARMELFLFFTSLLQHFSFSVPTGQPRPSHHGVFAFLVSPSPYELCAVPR
Sequence of CYP2C9 (P11712 whole entry): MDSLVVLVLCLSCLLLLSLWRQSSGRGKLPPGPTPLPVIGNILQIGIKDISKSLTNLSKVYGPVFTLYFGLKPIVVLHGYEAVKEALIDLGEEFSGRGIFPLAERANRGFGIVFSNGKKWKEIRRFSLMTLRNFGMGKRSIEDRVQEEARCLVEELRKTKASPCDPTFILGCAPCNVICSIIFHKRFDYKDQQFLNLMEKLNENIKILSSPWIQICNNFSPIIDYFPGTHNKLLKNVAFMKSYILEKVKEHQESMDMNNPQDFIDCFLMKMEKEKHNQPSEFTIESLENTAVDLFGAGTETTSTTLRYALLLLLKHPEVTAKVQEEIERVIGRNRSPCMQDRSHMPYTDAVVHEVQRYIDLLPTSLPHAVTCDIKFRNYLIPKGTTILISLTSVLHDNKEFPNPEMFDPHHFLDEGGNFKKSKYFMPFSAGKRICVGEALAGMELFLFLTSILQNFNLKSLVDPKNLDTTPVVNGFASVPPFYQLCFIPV
Sequence of CYP2C19 (P33261 whole entry): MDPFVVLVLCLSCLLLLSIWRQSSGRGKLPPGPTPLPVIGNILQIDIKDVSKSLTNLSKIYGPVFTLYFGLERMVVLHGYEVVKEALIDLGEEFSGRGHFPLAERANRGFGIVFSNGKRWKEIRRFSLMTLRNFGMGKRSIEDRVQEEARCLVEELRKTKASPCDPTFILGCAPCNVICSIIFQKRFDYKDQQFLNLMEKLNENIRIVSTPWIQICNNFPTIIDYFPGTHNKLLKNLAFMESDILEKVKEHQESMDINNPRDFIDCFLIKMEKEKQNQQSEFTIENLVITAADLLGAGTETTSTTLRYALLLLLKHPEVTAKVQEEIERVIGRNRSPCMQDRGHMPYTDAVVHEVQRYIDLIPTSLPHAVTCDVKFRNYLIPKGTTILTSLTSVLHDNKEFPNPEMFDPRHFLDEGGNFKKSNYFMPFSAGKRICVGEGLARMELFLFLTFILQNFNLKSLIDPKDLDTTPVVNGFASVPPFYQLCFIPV
T5 sequence (Q86VL8 1-566 isoform Q86VL8-3): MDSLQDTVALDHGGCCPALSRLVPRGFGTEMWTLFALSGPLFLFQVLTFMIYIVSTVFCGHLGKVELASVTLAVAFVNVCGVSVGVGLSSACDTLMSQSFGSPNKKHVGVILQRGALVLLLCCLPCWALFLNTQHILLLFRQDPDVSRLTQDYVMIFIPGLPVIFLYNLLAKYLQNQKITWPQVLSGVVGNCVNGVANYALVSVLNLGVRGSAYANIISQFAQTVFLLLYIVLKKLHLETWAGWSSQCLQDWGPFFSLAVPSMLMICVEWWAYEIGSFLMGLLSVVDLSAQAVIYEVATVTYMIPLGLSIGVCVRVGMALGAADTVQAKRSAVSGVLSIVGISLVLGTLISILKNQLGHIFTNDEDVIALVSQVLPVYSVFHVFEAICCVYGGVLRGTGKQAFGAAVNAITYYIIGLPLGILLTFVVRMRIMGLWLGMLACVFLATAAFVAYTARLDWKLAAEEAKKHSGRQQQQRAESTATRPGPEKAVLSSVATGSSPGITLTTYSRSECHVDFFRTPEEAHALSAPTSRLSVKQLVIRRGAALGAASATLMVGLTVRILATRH

| Compound | activity at 20 min, 10 µM [1] [%] | activity at 20 min, 10 µM [2, 13] [%] | activity at 20 min, 10 µM [2, 14] [%] | activity at 20 min, 10 µM [3] [%] | activity at 20 min, 10 µM [4] [%] | activity at 20 min, 10 µM [5] [%] | activity at 20 min, 10 µM [6] [%] | activity at 20 min, 10 µM [7] [%] | cardiovascular effect in combination with cocaine [8] | activity at 20 min, 10 µM [9] [%] | activity at 20 min, 10 µM [10] [%] | inhibition at 100 µM [11] [%] | inhibition at 100 µM [12] [%] |
| --- | --- | --- | --- | --- | --- | --- | --- | --- | --- | --- | --- | --- | --- |
| Cc1nc2c([nH]1)c(=O)n(C)c(=O)n2Cc1ccco1 [Furafylline] | 49 ± 5.3 | 97.2 ± 4.7 | 95.1 ± 5.6 | 97.3 ± 2.9 | 89.9 ± 1.4 | 96.3 ± 1.4 | 94.3 ± 8.1 | 94.7 ± 1.1 | – | – | – | – | – |
| Cc1ncoc1-c1nnc(SCCCN2C[C@@H]3C[C@]3(c3ccc(C(F)(F)F)cc3F)C2)n1C [GSK598,809] | – | – | – | – | – | – | – | – | hypertension | – | – | – | – |
| CC(C)(O)c1ccccc1CC[C@@H](SCC1(CC(=O)O)CC1)c1cccc(/C=C/c2ccc3ccc(Cl)cc3n2)c1 [Montelukast] | – | 93.8 ± 3.9 | 93.1 ± 2 | 90.5 ± 1.3 | – | 75.4 ± 0.9 | 105 ± 2 | 88.4 ± 1.8 | – | 10.3 ± 0.7 | 91 ± 1.8 | – | – |
| CN/C(=N/CCSCc1nc[nH]c1C)NC#N [cimetidine, reference compound] | – | – | – | – | – | – | – | – | – | – | – | 99.3 ± 0.22 | 95.9 ± 0.59 |
